Assay results: the supplement of paper PMC10307832

Experiments:
Assay in all cases: relative viability (nuclei count vs DMSO), 5 days (fraction); higher = more cells survive
BAM7 + Alpelisib = compound: CCOC1=CC=CC=C1N=NC2=C(NN(C2=O)C3=NC(=CS3)C4=CC=CC=C4)C [BAM7] + Cc1nc(NC(=O)N2CCC[C@H]2C(N)=O)sc1-c1ccnc(C(C)(C)C(F)(F)F)c1 [Alpelisib] (partner 2 µM)
How it was run: (§1)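 Each reported value is a median over duplicate plates. It expresses relative viability: treated-well nuclei count divided by vehicle-well nuclei count. Lung cancer cell lines in 1536-well plates were dosed by pin tool a day after seeding, alone with one drug or with a fixed anchor-drug dose plus five library-drug doses (not always all listed) in √10 steps, and nuclei were counted after 5 days.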

[1] = compound: CCn1c(-c2nonc2N)nc2c(C#CC(C)(C)O)ncc(OC[C@H]3CCCNC3)c21 + Cc1nc(NC(=O)N2CCC[C@H]2C(N)=O)sc1-c1ccnc(C(C)(C)C(F)(F)F)c1 [Alpelisib] (partner 2 µM)
How it was run: as §1

BAM7 + Decitabine = compound: CCOC1=CC=CC=C1N=NC2=C(NN(C2=O)C3=NC(=CS3)C4=CC=CC=C4)C [BAM7] + Nc1ncn([C@H]2C[C@H](O)[C@@H](CO)O2)c(=O)n1 [Decitabine] (partner 2 µM)
How it was run: as §1

[2] = compound: CCn1c(-c2nonc2N)nc2c(C#CC(C)(C)O)ncc(OC[C@H]3CCCNC3)c21 + CS(=O)(=O)CCNCc1ccc(-c2ccc3ncnc(Nc4ccc(OCc5cccc(F)c5)c(Cl)c4)c3c2)o1 [Lapatinib] (partner 2 µM)
How it was run: as §1

Row | Cell Line | relative viability (BAM7 + Alpelisib; first compound 0.5 µM) | relative viability (BAM7 + Alpelisib; first compound 5 µM) | relative viability (BAM7 + Alpelisib; first compound 15.81 µM) | relative viability (BAM7 + Alpelisib; first compound 50 µM) | relative viability ([1]; first compound 0.01 µM) | relative viability ([1]; first compound 0.03162 µM) | relative viability ([1]; first compound 0.1 µM) | relative viability ([1]; first compound 0.3162 µM) | relative viability ([1]; first compound 1 µM) | relative viability (BAM7 + Decitabine; first compound 0.5 µM) | relative viability (BAM7 + Decitabine; first compound 5 µM) | relative viability (BAM7 + Decitabine; first compound 15.81 µM) | relative viability (BAM7 + Decitabine; first compound 50 µM) | relative viability ([2]; first compound 0.01 µM) | relative viability ([2]; first compound 0.03162 µM) | relative viability ([2]; first compound 0.1 µM) | relative viability ([2]; first compound 0.3162 µM) | relative viability ([2]; first compound 1 µM)
1 | 201T | 1.05 | 1.05 | 0.825 | 1.01 | 0.989 | 0.992 | 0.99 | 0.978 | 1.02 | 0.844 | 0.887 | 0.837 | 0.926 | 0.991 | 1.06 | 1.05 | 1.05 | 1.01
2 | A549 | 0.872 | 0.722 | 0.846 | 0.845 | 0.761 | 0.654 | 0.748 | 0.482 | 0.714 | 0.288 | 0.29 | 0.251 | 0.288 | 0.93 | 0.99 | 1.01 | 0.842 | 0.781
3 | A-427 | 0.687 | 1.16 | 1.11 | 1.06 | 0.998 | 1.11 | 1.05 | 0.997 | 1.14 | 0.531 | 0.551 | 0.543 | 0.569 | 0.962 | 1.05 | 0.932 | 1.03 | 1.03
4 | ABC-1 | 1.37 | 0.968 | 0.851 | 0.914 | 0.849 | 0.961 | 1.09 | 0.881 | 0.715 | 1.06 | 0.983 | 1.34 | 1.06 | 1.28 | 1.26 | 1 | 1.13 | 1.15
5 | BEN | 1.11 | 0.948 | 0.903 | 1.08 | 1.01 | 1.17 | 1.01 | 0.987 | 1.01 | 0.726 | 0.741 | 0.673 | 0.905 | 0.608 | 0.717 | 0.444 | 0.637 | 0.626
6 | CAL-12T | 1.21 | 1.19 | 1 | 1.39 | 1.03 | 1.33 | 1.21 | 1.24 | 0.939 |  |  |  |  | 0.613 | 0.665 | 0.845 | 0.585 | 0.595
7 | COR-L23 | 0.804 | 0.714 | 0.685 | 0.752 | 0.695 | 0.866 | 0.671 | 0.663 | 0.7 | 0.428 | 0.453 | 0.461 | 0.468 | 0.935 | 0.994 | 0.985 | 0.916 | 1.05
8 | COR-L 105 | 1.01 | 1.06 | 0.967 | 0.981 | 1.05 | 0.962 | 0.871 | 0.703 | 0.808 | 0.606 | 0.7 | 0.678 | 0.622 | 0.33 | 0.366 | 0.313 | 0.393 | 0.321
9 | Calu-6 | 0.986 | 0.931 | 0.932 | 1.11 | 0.92 | 1.08 | 1.02 | 0.963 | 1.14 |  |  |  |  | 1.06 | 1.14 | 1.11 | 1.04 | 1.07
10 | ChaGo-K-1 |  |  |  |  |  |  |  |  |  | 0.508 | 0.515 | 0.512 | 0.536 |  |  |  |  | 
11 | EBC-1 | 1.05 | 0.805 | 0.814 | 0.953 | 0.822 | 0.973 | 0.763 | 0.62 | 0.628 |  |  |  |  | 0.219 | 0.197 | 0.213 | 0.236 | 0.227
12 | EKVX | 0.891 | 0.794 | 0.513 | 0.597 | 0.937 | 0.943 | 0.862 | 0.842 | 0.919 | 0.372 | 0.355 | 0.284 | 0.334 | 0.235 | 0.203 | 0.223 | 0.206 | 0.223
13 | EMC-BAC-2 | 0.801 | 0.778 | 0.713 | 0.772 | 0.756 | 0.73 | 0.7 | 0.759 | 0.784 | 0.973 | 1.05 | 1.01 | 1.12 | 0.871 | 0.83 | 0.866 | 0.88 | 0.938
14 | EPLC-272H | 1.08 | 0.802 | 0.877 | 0.831 | 0.962 | 1.02 | 0.989 | 0.858 | 0.956 | 0.382 | 0.418 | 0.317 | 0.392 | 0.905 | 0.998 | 0.907 | 0.788 | 0.909
15 | H3255 | 0.691 | 0.673 | 0.649 | 0.734 | 0.659 | 0.705 | 0.692 | 0.562 | 0.607 | 0.588 | 0.612 | 0.582 | 0.603 | 0.259 | 0.202 | 0.217 | 0.276 | 0.228
16 | HARA | 0.879 | 0.816 | 0.594 | 0.847 | 0.843 | 0.884 | 0.824 | 0.781 | 0.861 | 0.538 | 0.59 | 0.545 | 0.531 | 0.718 | 0.7 | 0.684 | 0.554 | 0.95
17 | HCC-15 | 0.907 | 0.923 | 0.883 | 0.853 | 0.868 | 0.945 | 0.86 | 0.832 | 0.946 | 0.607 | 0.587 | 0.621 | 0.676 | 0.868 | 0.824 | 0.865 | 0.808 | 0.795
18 | HCC-44 | 0.829 | 0.708 | 0.702 | 0.735 | 0.732 | 0.818 | 0.794 | 0.761 | 0.786 | 0.96 | 0.938 | 0.926 | 0.949 | 0.93 | 0.975 | 1.01 | 0.989 | 1.09
19 | HCC-78 | 0.395 | 0.21 | 0.294 | 0.365 | 0.306 | 0.372 | 0.351 | 0.307 | 0.356 | 0.965 | 0.696 | 0.731 | 0.752 | 0.717 | 0.673 | 0.903 | 0.547 | 0.301
